Experimental data published in the NIST ThermoML archive (doi:10.1021/acs.jced.7b00321).

Experiment: xn = mol fraction of the nth substance listed
Conditions: 101 kPa, Liquid; for viscosity: Capillary tube (Ostwald / Ubbelohde) method; for mass density: Vibrating tube method

CC(O)CN (stereo not drawn) [1-amino-2-propanol] + CCO
Conditions	mass density, 293.15 K [kg/m3]	mass density, 303.15 K [kg/m3]	mass density, 313.15 K [kg/m3]	mass density, 323.15 K [kg/m3]	viscosity, 293.15 K [mPa·s]	viscosity, 303.15 K [mPa·s]	viscosity, 313.15 K [mPa·s]	viscosity, 323.15 K [mPa·s]
x1 = 0.1009	815.54	807.78	798.04	790.57	1.69	1.35	1.1	0.9
x1 = 0.2	839.35	830.91	821.03	813.16	2.38	1.83	1.45	1.16
x1 = 0.3015	860.99	852.05	842.37	834.09	3.39	2.51	1.91	1.49
x1 = 0.3999	879.64	870.63	860.91	852.56	4.74	3.38	2.49	1.89
x1 = 0.4999	896.77	887.58	878.08	869.65	6.61	4.53	3.23	2.39
x1 = 0.5992	912.21	903.08	893.58	885.11	9.15	6.04	4.17	3.01
x1 = 0.6996	926.22	917.08	907.84	899.63	12.64	8.01	5.35	3.76
x1 = 0.7998	938.83	929.86	921.21	912.9	17.3	10.53	6.84	4.7
x1 = 0.8995	950.36	941.55	933.29	924.97	23.42	13.8	8.64	5.75

NCCCO [3-amino-1-propanol] + CCO
Conditions	mass density, 293.15 K [kg/m3]	mass density, 303.15 K [kg/m3]	mass density, 313.15 K [kg/m3]	mass density, 323.15 K [kg/m3]	viscosity, 293.15 K [mPa·s]	viscosity, 303.15 K [mPa·s]	viscosity, 313.15 K [mPa·s]	viscosity, 323.15 K [mPa·s]
x1 = 0.101	820.04	812.33	802.78	795.11	1.77	1.41	1.18	0.97
x1 = 0.2008	847.98	839.91	830.23	822.21	2.7	2.05	1.63	1.32
x1 = 0.3001	871.99	863.77	854.17	846.08	4.06	2.97	2.29	1.79
x1 = 0.4006	894.28	885.95	876.32	867.97	6.22	4.43	3.25	2.49
x1 = 0.4999	914.13	905.74	896.28	887.91	9.34	6.31	4.53	3.33
x1 = 0.5994	932.46	923.63	914.45	906.05	13.88	8.89	6.17	4.35
x1 = 0.6993	948.72	940.08	931.32	922.79	19.55	12.09	8.08	5.52
x1 = 0.7999	963.35	954.73	946.49	938.29	26.29	15.91	10.18	6.82
x1 = 0.8998	975.98	967.76	959.83	951.35	32.9	19.96	12.86	8.29

NCCNCCO [N-(2-aminoethyl)ethanolamine] + CCO
Conditions	mass density, 293.15 K [kg/m3]	mass density, 303.15 K [kg/m3]	mass density, 313.15 K [kg/m3]	mass density, 323.15 K [kg/m3]	viscosity, 293.15 K [mPa·s]	viscosity, 303.15 K [mPa·s]	viscosity, 313.15 K [mPa·s]	viscosity, 323.15 K [mPa·s]
x1 = 0.1003	836.01	827.72	817.72	810.06	2.27	1.78	1.41	1.13
x1 = 0.2	876.03	866.47	856.04	847.84	4.21	3.09	2.35	1.79
x1 = 0.3	908.63	898.53	888.11	880.03	8.22	5.37	3.76	2.74
x1 = 0.4	935.65	925.07	915.04	906.65	14.62	9.08	6.08	4.22
x1 = 0.4997	957.92	947.38	937.71	929.72	24.18	14.41	9.37	6.19
x1 = 0.5996	976.58	966.68	957.44	949.14	36.92	21.51	13.45	8.75
x1 = 0.6992	992.84	983.3	974.42	966.36	55.46	31.16	18.74	11.65
x1 = 0.7994	1007.09	997.81	989.49	981.48	78.97	42.47	24.16	14.94
x1 = 0.9007	1019.25	1010.53	1002.88	995.08	107.09	56.14	31.76	18.8

NCCNCCN [di(2-aminoethyl)amine] + CCO
Conditions	mass density, 293.15 K [kg/m3]	mass density, 303.15 K [kg/m3]	mass density, 313.15 K [kg/m3]	mass density, 323.15 K [kg/m3]	viscosity, 293.15 K [mPa·s]	viscosity, 303.15 K [mPa·s]	viscosity, 313.15 K [mPa·s]	viscosity, 323.15 K [mPa·s]
x1 = 0.1	831.18	820.88	809.43	800.56	2.38	1.82	1.43	1.16
x1 = 0.1999	864.18	852.13	839.06	828.38	3.4	2.52	1.95	1.54
x1 = 0.3001	888.74	875.32	862.26	849.95	4.31	3.11	2.33	1.81
x1 = 0.4	905.98	892.48	879.84	866.96	5.06	3.57	2.64	2.03
x1 = 0.4998	918.77	905.55	893.25	881.28	5.59	3.93	2.89	2.2
x1 = 0.6001	928.75	915.84	904.57	892.92	6.05	4.19	3.06	2.31
x1 = 0.6992	936.55	924.86	913.73	903.03	6.39	4.38	3.15	2.37
x1 = 0.7998	943.08	931.95	921.49	911.41	6.61	4.53	3.26	2.45
x1 = 0.9007	948.15	937.76	928.32	918.94	6.8	4.65	3.31	2.5
